Drawing on ChEMBL document CHEMBL1144126, “A new insecticidal pyranocyclohexenedione from kunzea ericifolia” (1999), this text covers Activity for one molecule.

For the test, the system named is Phaedon cochleariae. Nature of the test: Insecticidal activity against mustard beetles at 10 ug after 24 to 48 hrs. Type of test: functional.

`CC(C)C[C@@H]1C2=C(O[C@@H](C3=C(O)C(C)(C)C(=O)C(C)(C)C3=O)[C@H]1C(C)C)C(C)(C)C(=O)C(C)(C)C2=O` [ERICIFOLIONE]: the Activity was determined as 97%.
